Entries after “also recorded” stand apart in the source; their conditions may differ. Where two headings read alike, the source gives them in different places.
Columns and labels:
[1] = test system: c-fos SRE activation in CHO cells stably expressing D2R; test: SRE-luciferase reporter assay, quinpirole-stimulated c-fos SRE activation in CHO-D2R cells; type: cell-based, Chinese hamster
[2] = test system: Erk1/2 phosphorylation; test: Western blot of phospho-Erk1/2 in CHO-D2R cells; type: cell-based, Chinese hamster; conditions: 25 nM PD098059, 30 minutes before 100 nM quinpirole, 5 min
Experimental: Cell lysates were prepared by incubating cells for 5 minutes on ice with a lysis buffer containing […] NaCl, 50 mM Tris, pH 7.5, 5 mM EDTA, 1% Triton, and a mixture of protease inhibitors. Cells were then scraped off plates and sonicated. The detergent-insoluble material was removed by microcentrifugation for 10 minutes at 4° C. An equal amount of protein was run on SDS gels (Novex, Carlsbad, Calif.) and transferred to nitrocellulose (Bio-Rad, Hercules, Calif.). […] The membrane was washed, incubated for 1 hour in TBS containing appropriate HRP-conjugated secondary antibodies, washed again, and developed with the ECL reagent (Amersham Pharmacia Biotech, Piscataway, N.J.).

[3] = transfection of dominant-negative Rho family mutant or C3 (3 μg), 100 nM quinpirole

“CdcN17: dominant-negative mutant of Cdc42, Thr17 substituted with Asn” was tested, and the “effect on quinpirole-stimulated SRE activation” value [1, 3] was “suppressed”.

In the case of pertussis toxin [reference compound], the “effect on quinpirole-stimulated SRE activation” value [1] is reported as “completely abolished; also recorded: abrogated”.

`COc1cccc(-c2cc(=O)c3ccccc3o2)c1N` [PD098059, reference compound] was tested, and the “effect on quinpirole-stimulated SRE activation” value ([1]; 25 nM PD098059, 100 nM quinpirole) was “only partially suppressed; also recorded: inhibited”, the “diminution of quinpirole-stimulated SRE activity” value ([1]; 25 nM PD098059, 100 nM quinpirole, compared to vehicle) was “about 50%” and the “effect on quinpirole-stimulated Erk1/2 phosphorylation” value [2] was “completely suppressed; also recorded: inhibited”.

With `COC[C@H]1OC(=O)c2coc3c2[C@@]1(C)C1=C(C3=O)[C@@H]2CCC(=O)[C@@]2(C)C[C@H]1OC(C)=O` [wortmannin, reference compound] the “effect on quinpirole-stimulated SRE activation” value ([1]; 50 nM wortmannin, 100 nM quinpirole) was “no effect”.

“RhoN19: dominant-negative mutant of RhoA, Thr19 substituted with Asn” was tested, and the “effect on quinpirole-stimulated SRE activation” value [1, 3] was “suppressed”.
